Reference: article PMC12392461, “Beyond Estrogenicity: A Comparative Assessment of Bisphenol A and Its Alternatives in In Vitro Assays Questions Safety of Replacements” (Environmental Science & Technology, 2025)
Like-named read-outs stand apart in the source and are kept apart here.

Columns and labels:
[1] = molecular target: T1, Peroxisome proliferator-activated receptor γ (Homo sapiens, UniProt P37231); assay: cell-based; details: for EC10, linear / logEC10: PPARγ bioassay, dosing range all; for EC10, linear: linear model; for logEC10: log-logistic model
T1 sequence (P37231 238-505 limits assumed): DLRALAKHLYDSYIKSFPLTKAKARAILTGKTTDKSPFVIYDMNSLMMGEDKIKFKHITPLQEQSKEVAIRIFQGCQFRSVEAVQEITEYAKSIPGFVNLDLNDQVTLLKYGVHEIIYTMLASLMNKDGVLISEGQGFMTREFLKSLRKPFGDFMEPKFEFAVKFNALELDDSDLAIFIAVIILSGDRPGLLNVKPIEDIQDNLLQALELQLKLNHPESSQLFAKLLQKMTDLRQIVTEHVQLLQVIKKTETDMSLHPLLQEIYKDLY
Description: All bioassay media components and the ERα-UAS-bla GripTite and PPARγ-UAS-bla cells were obtained from Thermo Fisher Scientific (Waltham, MA, USA). AREc32 reporter gene cells based on MCF7 were provided by C. Roland Wolf (Cancer Research UK); AhR CALUX cells (H4L7.5c2 derived from H4IIe) were provided by Michael Denison (UC Davis, USA); and SH-SY5Y cells were purchased from Sigma-Aldrich.
(§1) Cell culture conditions and bioassay protocols including response detection are provided in Text S2.1–2.4 and Table S3. − Cell viability was determined from cell confluency using an IncuCyte S3 Live-Cell Analysis System (Sartorius AG, Essen, Germany) before and after exposure, except for SH-SY5Y cells (live–dead staining with Nuclear Green LcS1 and propidium iodide, Abcam, UK). For metabolic activation experiments, cell viability was assessed using the ToxBLAzer DualScreen Kit (Thermo Fisher Scientific) to capture the remaining toxicity in ERα-UAS-bla GripTite after treatment with the aCYP catalyst (details in Text S2.4).
(§2) For ARE, the concentration that triggered an induction ratio of 1.5 (ECIR1.5) was used as the benchmark value, as detailed in Text S2.5. IC10 values also served as a threshold for data analysis in all assays; only concentrations below IC10 were considered when deriving EC10 or ECIR1.5.
The maximum efficacy (Emax%) refers to the maximum of the log–logistic concentration–response curve attained by test chemicals compared to the reference chemical’s maximum and was obtained for both ERα and PPARγ. […]
S2: Cell culture and bioassays
S2.1: Cell Culturing Conditions
All suppliers and sources are given in detail in SI-Excel S3. The bioassay media for the different assays were prepared as follows: Assay medium for ER alpha-UAS-bla GripTite (ERα) and […]
2% charcoal-stripped FBS, and 100 U/mL penicillin-streptomycin. […]
(§3) S2.2: Cell Seeding and Incubation. For all bioassays, cell suspensions in the respective assay medium were dispensed into each well of 384-well plates using a MultiFlo Dispenser (Biotek, (now Agilent), Winooski, VT, U.S.). After seeding, the plates were incubated at 37° C and 5% CO₂ for […]. The final cell densities and plate types were as follows: Black poly-D-lysine […]
6500 cells/well, ERα: 5000 cells/well. White 384-well plates with a clear bottom (Product No. […]
S2.3: Chemical Dosing and Assay Analysis Procedures.

HEK293T (ERα) = details: cytotoxicity; for IC10, linear transformed / IC10, linear / logIC10: Bioassay ERα; for IC10, linear: linear model fit; for logIC10: log-logistic model fit; for IC10, HEK293, ERα: HEK293 (ERα assay cells)
Description: as §1, §2
(§4) We measured the cytotoxicity of BPA and its alternatives in HEK293H (PPARγ), HEK293T (ERα), H4IIe (AhR CALUX), MCF7 (ARE/MMP), and differentiated SH-SY5Y cells (Table S6). […]
as §3
(§5) 6500 cells/well, ERα: 5000 cells/well. White 384-well plates with a clear bottom (Product No.
(§6) NYC, U.S.) for AhR: 3250 cells/well. Black Collagen I coated plates were used (Product No.
(§7) S2.3: Chemical Dosing and Assay Analysis Procedures. The dosing procedure and high-throughput assay workflow have been described in detail before. 9 The dosing concentrations […]
(§8) Stock solutions were then either added directly to the respective cell culture medium or evaporated under nitrogen, followed by replenishment with fresh medium. The final solvent content in each well was kept below 1% for methanol, 0% for acetonitrile.
(§9) Dosing plates were prepared as 11 -step serial dilutions using a Hamilton Microlab Star robotic system (Hamilton, Bonaduz, Switzerland), and chemicals were dosed in duplicates by transferring 10 μL twice from the dosing plates to the cell plates . After quantifying cell confluency as described in S2. 4., the exposed cells were incubated at 37° C and 5% CO₂ for an additional 24 h. All chemicals were tested in all assays with at least three independent […]
(§10) S2.4: Cell Viability Measurement s and bioanalytical protocols . The confluency as a measure of cell viability was determined with an IncuCyte S3 Live -Cell Analysis System (Sartorius AG, Essen, Germany). With this method the confluency of cells in a microscopy image are normalized to control wells without cells and compared before and after 24 hours of exposure.
(§11) This method has been described previously 13. […]

MCF7 (ARE/MMP) = details: for IC10, linear transformed / IC10, linear / logIC10: dosing range all; for IC10, MCF7, ARE: MCF7, ARE readout; for IC10, MCF7, MMP: MCF7, MMP readout
Description: as §1, §2, §4, §3, §5, §6, §7, §8, §9, §10, §11

HEK293H (PPARγ) = details: for IC10, linear transformed / IC10, linear / logIC10: PPARγ bioassay cytotoxicity, dosing range all; for IC10, linear: linear model; for logIC10: log-logistic model; for IC10, HEK293, PPARγ: cytotoxicity, HEK293 (PPARγ assay cells)
Description: as §1, §2, §4, §3, §5, §6, §7, §8, §9, §10, §11

H4IIe (AhR CALUX) = details: cytotoxicity; for IC10, linear transformed / IC10, linear / logIC10: Bioassay AhR, dosing range all; for IC10, linear: linear model fit; for logIC10: log-logistic model fit; for IC10, H4IIe, AhR: H4IIe (AhR assay cells)
Description: as §1, §2, §4, §3, §5, §6, §7, §8, §9, §10, §11

[2] = Bioassay ARE, cytotoxicity, linear model fit
[3] = Bioassay ARE, cytotoxicity, log-logistic model fit
[4] = MMP bioassay cytotoxicity, linear model
[5] = MMP bioassay cytotoxicity, log-logistic model

Oc1ccc(C(c2ccc(O)cc2)(C(F)(F)F)C(F)(F)F)cc1 [BPAF, 4,4'-(1,1,1,3,3,3-Hexafluoropropane-2,2-diyl)diphenol]
EC10, linear [1]: no effect | logEC10 [1]: no effect | IC10, linear transformed (HEK293T (ERα); dosing range high): 5.56E-06 | IC10, linear (HEK293T (ERα); dosing range high): no cytotoxicity | logIC10 (HEK293T (ERα); dosing range high): -5.02 | IC10, linear (HEK293T (ERα); dosing range low): no cytotoxicity | logIC10 (HEK293T (ERα); dosing range low): no cytotoxicity | IC10, HEK293, ERα (HEK293T (ERα)): 9.47 µM | IC10, linear transformed (MCF7 (ARE/MMP); Bioassay ARE, cytotoxicity): 1.84E-05 | IC10, linear (MCF7 (ARE/MMP); [2]): 1.82E-05 | logIC10 (MCF7 (ARE/MMP); [3]): -4.73 | IC10, linear transformed (MCF7 (ARE/MMP); MMP bioassay cytotoxicity): 2.72E-05 | IC10, linear (MCF7 (ARE/MMP); [4]): 2.87E-05 | logIC10 (MCF7 (ARE/MMP); [5]): -4.57 | IC10, MCF7, ARE (MCF7 (ARE/MMP); cytotoxicity): 18.4 µM | IC10, MCF7, MMP (MCF7 (ARE/MMP); cytotoxicity): 27.2 µM | IC10, linear transformed (HEK293H (PPARγ)): 4.34E-06 | IC10, linear (HEK293H (PPARγ)): 1.10E-05 | logIC10 (HEK293H (PPARγ)): -5.04 | IC10, HEK293, PPARγ (HEK293H (PPARγ)): 9.12 µM | IC10, linear transformed (H4IIe (AhR CALUX)): 3.99E-05 | IC10, linear (H4IIe (AhR CALUX)): 3.11E-05 | logIC10 (H4IIe (AhR CALUX)): -4.40 | IC10, H4IIe, AhR (H4IIe (AhR CALUX)): 31.1 µM

Cc1ccc(S(=O)(=O)NC(=O)Nc2ccc(Cc3ccc(NC(=O)NS(=O)(=O)c4ccc(C)cc4)cc3)cc2)cc1 [BTUM, 4,4'-Bis(p-tolylsulfonylureido)diphenylmethane]
EC10, PPARγ (M) ([1]; 10% of maximum effect of rosiglitazone): 2.56 × 10^–7 M | EC10, linear [1]: 2.64E-07 | logEC10 [1]: -6.59 | SR-ScorePPARγ ([1]; SR-Score, sigma k=1, x=5): 1.00 | Specificity ratio (SRbaseline) SRPPARγ ([1]; against baseline cytotoxicity): 110.22 | Specificity ratio (SRcytotoxicity) SRPPARγ ([1]; against experimental cytotoxicity): 121.09 | EC10, PPARγ ([1]; effect): 0.256 µM | log(1/EC10) PPARγ ([1]; input of the ToxPi score, values up to 1.00): 0.93 | Emax ([1]; read-out: Emax%PPARγ): 47% | SR (PPARγ) ([1]; specificity ratio): 121 | IC10, linear (HEK293T (ERα); dosing range all): 3.66E-05 | logIC10 (HEK293T (ERα); dosing range all): no cytotoxicity | IC10, linear (MCF7 (ARE/MMP); [2]): no cytotoxicity | logIC10 (MCF7 (ARE/MMP); [3]): no cytotoxicity | IC10, linear (MCF7 (ARE/MMP); [4]): no cytotoxicity | logIC10 (MCF7 (ARE/MMP); [5]): no cytotoxicity | IC10, linear (HEK293H (PPARγ)): 4.34E-05 | logIC10 (HEK293H (PPARγ)): -4.51 | Toxic ratio (TR) TRPPARγ (HEK293H (PPARγ); against baseline cytotoxicity): 0.91 | IC10, HEK293, PPARγ (HEK293H (PPARγ)): 31 µM | IC10, linear (H4IIe (AhR CALUX)): no cytotoxicity | logIC10 (H4IIe (AhR CALUX)): no cytotoxicity

CC(c1ccccc1)(c1ccc(O)cc1)c1ccc(O)cc1 [BPAP, 4,4'-(1-Phenylethylidene)bisphenol]
EC10, linear [1]: no effect | logEC10 [1]: no effect | IC10, linear transformed (HEK293T (ERα); dosing range all): 1.11E-05 | IC10, linear (HEK293T (ERα); dosing range all): no cytotoxicity | logIC10 (HEK293T (ERα); dosing range all): -4.93 | IC10, HEK293, ERα (HEK293T (ERα)): 11.8 µM | IC10, linear transformed (MCF7 (ARE/MMP); Bioassay ARE, cytotoxicity): 3.14E-05 | IC10, linear (MCF7 (ARE/MMP); [2]): 2.44E-05 | logIC10 (MCF7 (ARE/MMP); [3]): -4.50 | IC10, linear transformed (MCF7 (ARE/MMP); MMP bioassay cytotoxicity): 3.48E-05 | IC10, linear (MCF7 (ARE/MMP); [4]): 2.54E-05 | logIC10 (MCF7 (ARE/MMP); [5]): -4.46 | IC10, MCF7, ARE (MCF7 (ARE/MMP); cytotoxicity): 31.4 µM | IC10, MCF7, MMP (MCF7 (ARE/MMP); cytotoxicity): 34.8 µM | IC10, linear transformed (HEK293H (PPARγ)): 3.60E-06 | IC10, linear (HEK293H (PPARγ)): no cytotoxicity | logIC10 (HEK293H (PPARγ)): -4.99 | IC10, HEK293, PPARγ (HEK293H (PPARγ)): 10.2 µM | IC10, linear transformed (H4IIe (AhR CALUX)): 9.59E-05 | IC10, linear (H4IIe (AhR CALUX)): no cytotoxicity | logIC10 (H4IIe (AhR CALUX)): -4.02 | IC10, H4IIe, AhR (H4IIe (AhR CALUX)): 95.9 µM
